# Like-named read-outs stand apart in the source and are kept apart here.
# Assays:
# Format in all cases: in vivo, humans
# [1] = system: bitter taste of an aqueous solution of KCl; assay: Sip and spit bitterness rating of aqueous KCl test solutions; conditions: aqueous KCl 4.85 g/L, 1% EtOH, bitterness scored 0-15 vs KCl standard, dash = none of the tested conc.; for minimal effective concentration: Homo sapiens
# Method: An amount of this stock compound solution is then added to an aqueous KCl solution. Enough EtOH is then added to the resulting stock compound/KCl solution so that the final KCl test solution contains 1% EtOH. KCl solution standards were similarly prepared by dissolving various amounts of KCl in water and ethanol without adding any test compound.
# The effect of the test compounds an the perception of the bitter taste of an aqueous solution of KCl in humans was evaluated using a “sip and spit” test as follows.
# (§1) A set of KCl solution standards was developed and each standard solution was assigned a bitterness taste score of 0-15 (corresponding to aqueous KCl concentrations of 0 mM-120 mM). Panelists were trained to recognize these standards. In addition, before each day of testing, panelists were tested to see if they could determine differences in taste between the standard solutions. If a panelist was unable to recognize a change in KCl concentration, they were excluded from the panel for that day.
# (§2) In a blind taste test, panelists were asked to compare the bitter taste of a small quantity (e.g., 8 ml) of each of the KCl Test Solutions to the taste of a KCl solution standard, without swallowing (see, e.g., Table 1). Specifically, panelists were asked to rate the bitterness of each KCl Test Solution on a scale of 0-15 using the same scale developed for the KCl solution standards. Each sample was tested in 2-4 discrete taste test experiments. Panelists were asked to rinse with water, eat a cracker, and wait approximately 10 minutes between samples.
# [2] = system: bitter taste of KCl foodstuff slurries; assay: Two-alternative forced choice (2AFC) sip and spit test of KCl turkey foodstuff slurries; conditions: Homo sapiens, turkey slurry, 1.6% KCl, 2AFC vs KCl slurry standard, dash = none of the tested conc.
# Method: Edible KCl food compositions (“KCl test foodstuff slurries”) were prepared as follows. Dehydrated, salt-free turkey powder was weighed and mixed with various amounts of KCl and/or NaCl and then solubilized with boiling water to create a homogenized solubilized turkey slurry. Varying amounts of the test compounds were dissolved in an amount of ethanol or water (depending on the solubility of the compound) to create a 5 mg/mL stock compound solution. An amount of this stock compound solution was then added to the turkey slurry. Enough EtOH is then added to the resulting stock compound/turkey slurry so that the slurry contains 1% EtOH. The slurry was again homogenized by boiling and mixing and allowed to cool to yield the final KCl test foodstuff slurry for taste testing KCl foodstuff slurry standards were similarly prepared without any test compound.
# The effect of the test compounds on the perception of the bitter taste of KCl foodstuff slurries in humans was evaluated using a two-alternative-forced-choice “sip and spit” test as follows.
# In a blind taste test, panelists received two portions of turkey slurry—one portion being the KCl foodstuff slurry standard and the other being one of the KCl test foodstuff slurries (each prepared as described in Example 5). The panelists tasted each of the portions by sipping and spitting. Each sample was tested in 2-4 discrete taste test experiments. Panelists were asked to rinse with water, eat a cracker, and wait about 10 minutes between samples. In each case, the panelists were asked to compare the bitter taste of the two turkey samples to each other (i.e., panelists were asked to indicate which sample was less bitter).
# [3] = system: bitter taste of an aqueous solution of KCl; assay: Latin Square-2AFC sip and spit test of aqueous KCl solutions; conditions: Homo sapiens; aqueous KCl 4.85 g/L, Latin Square-2AFC vs KCl standard; dash = none of the tested conc.; read-out: Conc. at Which At Least 50% of Panelist Discerned Decrease in Bitter Taste and p ≦ 0.1
# Method: The effect of the test compounds on the perception of the bitter taste of an aqueous solution of KCl in humans was evaluated using a “sip and spit” test using a Latin Square-2AFC testing method as follows.
# In a blind taste test, panelists were asked to compare the bitter taste of a small quantity (e.g., 8 ml) of a KCl Test Solution to the taste of a KCl solution standard (prepared as described in Example 1), without swallowing. NaCl solution standards were prepared as described in Example 1.
# In order to eliminate any effects of sample order, a complete Latin Square design was employed so that each possible order of sample presentation was utilized across subjects. Each sample was tested in several discrete taste test experiments. Panelists were asked to rinse with water, eat a cracker, and wait about 10 minutes between samples. In each case, the panelists were asked to choose the sample which tasted “less bitter.” Illustrative results of the aqueous solution Latin Square-2AFC testing are presented in Table 5.
# [4] = system: bitter taste of an aqueous solution of potassium lactate; assay: Sip and spit bitterness rating of aqueous potassium lactate test solutions; conditions: Homo sapiens; aqueous potassium lactate 41 g/L, 1% EtOH; dash = none of the tested conc.; read-out: Conc. Where Decrease in Bitter Taste Was Discerned
# Method: as §1, §2
# Edible potassium lactate solution compositions (“potassium lactate test solutions”) were prepared by first dissolving varying amounts of the test compounds in an amount of ethanol or water (depending on the solubility of the compound) to create a 5 mg/mL stock compound solution. An amount of this stock compound solution is then added to an aqueous potassium lactate solution. Enough EtOH is then added to the resulting stock compound/potassium lactate solution so that the final potassium lactate test solution contains 1% EtOH. Potassium lactate solution standards were similarly prepared by dissolving various amounts of potassium lactate in water and ethanol without adding any test compound.
# The effect of the test compounds on the perception of the bitter taste of an aqueous solution of potassium lactate in humans was evaluated using the “sip and spit” test described in Example 2.
# [5] = read-out: Conc. Where Decrease in Bitter Taste Discerned and p ≦ 0.1
# [6] = read-out: Conc. Where Decrease in Bitter Taste Was Discerned
# [7] = read-out: Conc. at Which At Least 50% of Panelist Discerned Decrease in Bitter Taste
Structure (SMILES),"minimal effective concentration [1, 6] [µg/mL]",also measured
CCCC(=O)OC/C=C(\C)CCC=C(C)C [Compound 23],,"minimal effective concentration [1, 5]: 1 µg/mL"
CC(=O)CCC1=C(C)CCCC1(C)C [Compound 4],,"minimal effective concentration [1, 5]: 1 µg/mL"
CC(=O)CC/C=C(\C)CCC=C(C)C [Compound 29],1,
C=C1CC[C@H]2O[C@]2(C)CC[C@@H]2[C@@H]1CC2(C)C [Compound 121],40,"minimal effective concentration [1, 5]: 40 µg/mL"
O=C(O)c1ccc(O)cc1O [Compound 59],1,
CC(O)c1ccccc1 (stereo not shown) [Compound 71],,"minimal effective concentration [1, 5]: 1 µg/mL"
CC(CC=O)CCCC(C)(C)O (stereo not shown) [Compound 17],1,
CC(C)CC(=O)O[C@@H]1C[C@@H]2CC[C@@]1(C)C2(C)C [Compound 78],1,
CC(=O)O[C@@H]1C[C@@H]2CC[C@@]1(C)C2(C)C [Compound 88],,"minimal effective concentration [1, 5]: 1 µg/mL; minimal effective concentration [2, 7]: 1 µg/mL"
CC(C)=CCCC(C)CCO (stereo not shown) [Compound 7],10,
CC(=O)Oc1c(C)c(C)c2c(c1C)CC[C@@](C)(CCCC(C)CCCC(C)CCCC(C)C)O2 (stereo partly shown) [Compound 45],1,
CC(=O)Oc1c(C)c(C)c2c(c1C)CCC(C)(CCCC(C)CCCC(C)CCCC(C)C)O2 (stereo not shown) [Compound 50],1,
COC(=O)c1ccc(O)cc1 [Compound 61],1,
CC(C)=CCC/C(C)=C\COC(=O)CC(C)C [Compound 25],,"minimal effective concentration [1, 5]: 1 µg/mL"
CC(=O)CCC1C(C)=CCCC1(C)C (stereo not shown) [Compound 6],,"minimal effective concentration [1, 5]: 1 µg/mL"
O=C(/C=C/C=C/c1ccc2c(c1)OCO2)N1CCCCC1 [Compound 113],1,
Oc1cc(O)c2c(c1)O[C@H](c1ccc(O)c(O)c1)[C@@H](O)C2 [Compound 104],10,
COc1ccc2c(c1)[nH]c1c(C)nccc12 [Compound 130],40,
COc1c(C(=O)CC(=O)c2ccccc2)ccc2occc12 [Compound 132],1,
CC(C)=CCC/C(C)=C/COC(=O)CC(C)C [Compound 24],10,
CC(C)C(=O)OCc1ccc2c(c1)OCO2 [Compound 117],10,
O=Cc1ccc2c(c1)OCO2 [Compound 114],,minimal effective concentration [3]: 25 µg/mL
COc1ccc(-c2cc(=O)c3c(OC)c(OC)c(OC)cc3o2)cc1 [Compound 99],1,
C[C@@H]1[C@@H](O)C[C@H]2C[C@@H]1C2(C)C [Compound 90],1,
O=c1c(O)c(-c2ccc(O)c(O)c2)oc2cc(O)cc(O)c12 [Compound 111],,"minimal effective concentration [1, 5]: 10 µg/mL; minimal effective concentration [2, 7]: 1 µg/mL"
CCCOC(=O)c1ccccc1 [Compound 56],1,
CCCC(=O)OC/C=C(/C)CCC=C(C)C [Compound 33],1,

Structure (SMILES),"minimal effective concentration [1, 6] [µg/mL]",also measured
COc1cc(OC)c2c(=O)cc(-c3ccccc3)oc2c1 [Compound 100],10,
O=c1cc(-c2ccccc2)oc2cc(O)ccc12 [Compound 101],1,
C/C=C/c1ccc2c(c1)OCO2 [Compound 118],,minimal effective concentration [4]: 1 µg/mL
CC(C)=CCCC(C)CC=O (stereo not shown) [Compound 13],1,
O=C1CC(C(=O)O)C(C(=O)O)O1 (stereo not shown) [Compound 133],2,"minimal effective concentration [1, 5]: 2 µg/mL"
COC(CC(C)CCCC(C)(C)O)OC (stereo not shown) [Compound 18],10,
O=C(O[C@@H]1Cc2c(O)cc(O)cc2O[C@@H]1c1ccc(O)c(O)c1)c1cc(O)c(O)c(O)c1 [Compound 107],10,
CC(=O)OCCC(C)CCC=C(C)C (stereo not shown) [Compound 9],10,
CCCCC(=O)OCCC(C)CCC=C(C)C (stereo not shown) [Compound 12],10,
CCOC(=O)c1ccc(O)cc1 [Compound 62],10,
O=C(O[C@@H]1Cc2c(O)cc(O)cc2O[C@@H]1c1cc(O)c(O)c(O)c1)c1cc(O)c(O)c(O)c1 [Compound 108],1,
CCCCOC(=O)c1ccc(O)cc1 [Compound 63],,"minimal effective concentration [1, 5]: 1 µg/mL; minimal effective concentration ([2]; read-out: Conc. at Which At Least 50% of Panelist Discerned Decrease in Bitter Taste and p ≦ 0.1): 30 µg/mL"
COC(=O)c1ccccc1OC [Compound 68],10,
O=C1C[C@@H](c2ccccc2)Oc2cc(O)cc(O)c21 [Compound 97],1,
CC(C)=CCCC(C)CCOC=O (stereo not shown) [Compound 8],10,"minimal effective concentration [2, 7]: 1 µg/mL"
COc1cc(-c2oc3cc(O)cc(O)c3c(=O)c2O)ccc1O [Compound 102],1,"minimal effective concentration [1, 5]: 1 µg/mL; minimal effective concentration [4]: 1 µg/mL; minimal effective concentration [2, 7]: 10 µg/mL"
CC(=O)OC1C2(C)CCC(C2)C1(C)C (stereo not shown) [Compound 81],10,
CC(=O)/C=C/C1C(C)=CCCC1(C)C (stereo not shown) [Compound 5],0.1,"minimal effective concentration [1, 5]: 0.1 µg/mL"
CC(=O)OCC1=CC[C@@H]2C[C@H]1C2(C)C [Compound 94],10,
O=C(O)c1ccc(O)cc1 [Compound 58],10,"minimal effective concentration [1, 5]: 10 µg/mL"
C/C=C/C(=O)C1=C(C)CCCC1(C)C [Compound 1],0.1,"minimal effective concentration [1, 5]: 0.1 µg/mL"
CC1(C)[C@H]2CC[C@H](CO)[C@@H]1C2 [Compound 92],1,"minimal effective concentration [1, 5]: 1 µg/mL"
Oc1cc(O)c2c(c1)O[C@@H](c1cc(O)c(O)c(O)c1)[C@H](O)C2 [Compound 106],1,
CC(=O)OC/C=C(\C)CCC=C(C)C [Compound 21],10,"minimal effective concentration [2, 7]: 10 µg/mL"
O=C(O)c1ccccc1 [Compound 54],,Conc. Where Decrease in Bitter Taste Was Discerned [1]: 10 ppm
Cc1cc(O)cc2c1O[C@](C)(CCC[C@H](C)CCC[C@H](C)CCCC(C)C)CC2 [Compound 49],10,
